{
  "source": "patent US20230286955A1",
  "about": "“INHIBITORS OF THEM1” (Cornell University, priority 2022, published 2023)",
  "key": {"[1]": {"assay": "in vitro", "settings": "C57BL/6, mouse, primary brown adipocytes", "protocol": "Cytotoxicities of compounds were determined using a CellTiter-Glo® Luminescent Cell Viability Assay, which measures concentrations of ATP liberated from viable cells (Promega; Madison, WI). […] Tamoxifen (50 μM) was used as a (+) control. CellTiter-Glo reagent (10 μL) was added to each well and incubated on an orbital shaker for 10 min at 22° C. to induce cell lysis and stabilize the luminescent signal. Relative luminescent units (RLU) were determined using a NEO plate reader (BioTek, Winooski, VT)."}, "[2]": {"test_system": "primary brown adipocytes cultured from A-Them1Tg mice", "assay": "Oxygen consumption rates (OCR) in primary brown adipocytes", "type": "cell-based, mouse", "settings": "compounds at their in vitro IC50 concentrations, 30 min, NE 1 μM; vs wild type (DMSO)", "method": "Primary brown adipocytes from 4- to 6-w old wild type and A-Them1Tg mice were isolated, cultured and differentiated as described (Okada et al., 2016). In brief, BAT tissues harvested from 5- to 7-w old mice were pooled, minced and digested with collagenase B (Sigma-Aldrich; St. Louis, MO), and dispersed in growth medium [DMEM/F12 containing 4.5 g/L glucose, 0.1 mM pyruvate, 10 mM HEPES (Thermo Fisher; Waltham, MA) supplemented with 1% penicillin/streptomycin, 1% GlutaMAX (Thermo Fisher; Waltham, MA) and 20% fetal bovine serum]. […] Upon achieving confluence, pre-adipocytes were induced to differentiate for 8 d by culturing for the first 48 h in differentiation medium [DMEM/F12 containing 4.5 g/L glucose, 0.1 mM pyruvate, 10 mM HEPES (Thermo Fisher; Waltham, MA) supplemented with 1% penicillin/streptomycin, 1% GlutaMAX (Thermo Fisher; Waltham, MA), 10% fetal bovine serum, bovine insulin (5 μg/mL; Thermo Fisher; Waltham, MA) and rosiglitazone (1 μM; Sigma Aldrich; St. Louis, MO)] supplemented with dexamethasone (5 μM; Sigma Aldrich; St. Louis, MO) and 3-isobutyl-1-methylxanthine (0.5 mM; Sigma Aldrich; St. Louis, MO) and differentiation medium thereafter. On differentiation d 6 to 8, the adipocyte differentiation media was supplemented with L-(−)-norepinephrine (+) bitartrate (Calbiochem; EMD Millipore; Billerica, MA). Primary brown adipocytes were maintained in a cell culture incubator at 37° C. with 5% CO2.\nIn primary brown adipocytes on d 8 of differentiation, values of OCR were measured in the presence or absence of compounds using a Seahorse XF96 extracellular flux analyzer (Agilent Technologies; Santa Clara, CA). […] OCR values were measured before and after the exposure of cells to NE (1 μM) and normalized with total live cell count calculated through staining with NucRed Live probe (Thermo Fisher; Waltham, MA) measured at 715 nm emission and 623 nm excitation using a SpectraMax i3X plate reader (Molecular Devices; San Jose; CA)."}, "[3]": {"molecular_target": "full-length human Acot12 (Homo sapiens, UniProt Q8WYK0)", "sequence (Q8WYK0 whole entry)": "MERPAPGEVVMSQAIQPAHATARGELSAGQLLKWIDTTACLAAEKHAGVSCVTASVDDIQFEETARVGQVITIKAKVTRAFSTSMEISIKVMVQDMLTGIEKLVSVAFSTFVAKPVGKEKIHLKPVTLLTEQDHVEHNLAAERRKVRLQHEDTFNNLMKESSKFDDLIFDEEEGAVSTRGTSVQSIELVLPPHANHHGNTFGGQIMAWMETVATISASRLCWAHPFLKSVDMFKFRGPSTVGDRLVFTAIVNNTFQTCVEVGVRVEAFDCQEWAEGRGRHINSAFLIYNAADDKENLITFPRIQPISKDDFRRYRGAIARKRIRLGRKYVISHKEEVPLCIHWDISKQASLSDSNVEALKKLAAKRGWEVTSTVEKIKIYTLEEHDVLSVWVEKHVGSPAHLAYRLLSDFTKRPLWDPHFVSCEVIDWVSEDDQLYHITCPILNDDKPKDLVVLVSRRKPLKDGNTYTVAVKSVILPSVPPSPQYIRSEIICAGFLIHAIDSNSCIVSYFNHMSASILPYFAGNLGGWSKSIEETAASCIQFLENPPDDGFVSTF", "assay": "biochemical", "protocol": "(§1) Reaction labeling recombinant full-length Them1, Them1l-ΔSTART, START or Acot12 with Monolith RED-Tris-NTA (NanoTemper Technologies; San Francisco, CA) were performed according to the manufacturer's instructions in buffer containing PBS plus 0.5% Tween-20 for 60 min at 22° C. with a molar dye: protein ratio=1:1. […] Working concentrations of compounds were prepared by diluting in microscale thermophoresis buffer. Reactions consisting of 100 nM of fluorescently labeled recombinant protein (full-length Them1, Them1-ΔSTART, START or Acot12) and compounds were loaded onto standard Monolith NT.115 Capillaries (NanoTemper Technologies; San Francisco, CA). Fluorescence was measured using a Monolith NT.115 instrument (NanoTemper Technologies; San Francisco, CA) at 22° C. with instrument parameters adjusted to 40% LED power and medium microscale thermophoresis power. Data were fitted by non-linear regression in GraphPad Prism (GraphPad Software; San Diego, CA)."}, "[4]": {"molecular_target": "T1, Them1-ΔSTART (Homo sapiens, UniProt Q8WXI4)", "T1 sequence (Q8WXI4 43-329 isoform Q8WXI4-2 limits assumed)": "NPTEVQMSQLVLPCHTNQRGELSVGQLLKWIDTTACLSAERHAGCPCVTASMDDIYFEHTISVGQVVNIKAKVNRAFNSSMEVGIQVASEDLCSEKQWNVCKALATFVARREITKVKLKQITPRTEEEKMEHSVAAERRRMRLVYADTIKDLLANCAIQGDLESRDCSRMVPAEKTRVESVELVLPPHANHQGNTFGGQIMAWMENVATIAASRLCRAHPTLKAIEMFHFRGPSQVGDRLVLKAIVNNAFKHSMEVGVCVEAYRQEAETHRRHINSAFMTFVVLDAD", "assay": "Microscale thermophoresis binding, Them1-ΔSTART", "settings": "for Kd: read-out: Kd, Thioesterase domains (Them1-ΔSTART ), MST, 100 nM labeled protein, 22° C.; for binding to Them1-ΔSTART: in words", "protocol": "(§2) Data represent the mean (s.e.m.) of triplicate determinations. Where not visible, error bars are contained within the symbol sizes.\nas §1"}, "[5]": {"molecular_target": "T2, full-length Them1 (Homo sapiens, UniProt Q8WXI4)", "T2 sequence (Q8WXI4 14-594 isoform Q8WXI4-2 limits assumed)": "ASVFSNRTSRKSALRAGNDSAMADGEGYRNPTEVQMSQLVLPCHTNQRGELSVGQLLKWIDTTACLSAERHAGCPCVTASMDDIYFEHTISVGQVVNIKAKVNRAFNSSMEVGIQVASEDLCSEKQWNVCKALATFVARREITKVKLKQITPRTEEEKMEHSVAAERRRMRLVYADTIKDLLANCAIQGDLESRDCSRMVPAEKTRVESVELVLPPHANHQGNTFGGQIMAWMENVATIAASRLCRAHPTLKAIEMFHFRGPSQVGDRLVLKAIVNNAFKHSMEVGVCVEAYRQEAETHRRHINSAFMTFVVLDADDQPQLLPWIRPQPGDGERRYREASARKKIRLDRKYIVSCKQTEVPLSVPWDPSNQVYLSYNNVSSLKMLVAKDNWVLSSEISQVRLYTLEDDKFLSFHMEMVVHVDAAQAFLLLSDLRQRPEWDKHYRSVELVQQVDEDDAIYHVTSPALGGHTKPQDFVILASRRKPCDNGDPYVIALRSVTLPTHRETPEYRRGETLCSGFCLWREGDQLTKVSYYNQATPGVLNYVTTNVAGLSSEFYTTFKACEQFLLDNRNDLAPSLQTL", "assay": "Microscale thermophoresis binding, full-length Them1", "settings": "in words", "protocol": "as §2, §1"}, "[6]": {"molecular_target": "T3, Them1 START domain (Homo sapiens, UniProt Q8WXI4)", "T3 sequence (Q8WXI4 339-594 isoform Q8WXI4-2)": "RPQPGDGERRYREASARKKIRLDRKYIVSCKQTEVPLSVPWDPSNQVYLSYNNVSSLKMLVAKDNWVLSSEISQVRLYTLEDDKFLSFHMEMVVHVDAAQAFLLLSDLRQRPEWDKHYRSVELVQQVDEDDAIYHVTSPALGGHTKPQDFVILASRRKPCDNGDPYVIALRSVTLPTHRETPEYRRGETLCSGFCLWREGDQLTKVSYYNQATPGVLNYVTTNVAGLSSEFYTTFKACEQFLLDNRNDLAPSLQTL", "assay": "Microscale thermophoresis binding, START domain", "settings": "in words", "description": "A synthetic gene encoding the START domain was cloned into a pNIC28-Bsa4 bacterial expression vector (Novagen, EMD Biosciences; Madison, WI), which introduced an in-frame N-terminal His6 fusion containing a tobacco etch virus protease cleavage site to facilitate tag removal. The pNIC28-Bsa4-START domain plasmid was co-transformed into E. coli BL21 (DE3) (New England Biolabs; Ipswich, MA) competent cells with a pG-Tf2 vector (encoding groES-gorEL-tig chaperones) and then grown to an A600 of 0.5-0.7 in terrific broth. Under conditions of shaking (250 rpm) at 18° C., chaperones were induced by the addition of 5 ng/mL tetracycline HCl for 60 min followed by START domain induction upon the addition of 0.5 mM isoproyl β-D-thiogalactoside for ˜18 h. The bacteria were harvested by centrifugation, and then lysed by sonication with 20 mM Tris-Cl (pH 7.4), 500 mM NaCl, 25 mM imidazole, 5% glycerol, lysozyme, Dnase A, 0.1% Triton X-100, 5 mM β-mercaptoethanol and 100 μM phenylmethylsulfonyl fluoride. Following centrifugation of the bacterial lysate, recombinant START was purified by FPLC using a His affinity column (HisTrap HP column; GE Healthcare; Waukesha, WI). The soluble fraction containing recombinant START was applied to the column after equilibration with 20 mM Tris-Cl (pH 7.4), 500 mM NaCl, 25 mM imidazole and 5% glycerol, and then washed with the same buffer. Recombinant START was eluted from the HisTrap HP column using 20 mM Tris-Cl (pH 7.4), 500 mM NaCl, 500 mM imidazole and 5% glycerol followed by tobacco etch virus protease-mediated His-tag cleavage at 4° C. overnight with simultaneous dialysis into 20 mM Tris-Cl (pH 7.4), 500 mM NaCl and 5% glycerol. Recombinant START was further purified using a Superdex column (HiLoad 16/60 Superdex 75 column; GE Healthcare; Waukesha, WI) in 20 mM Tris-Cl (pH 7.4), 500 mM NaCl and 5% glycerol. Assessment of purity, protein concentration and storage of single use aliquots of recombinant START were performed as described above for recombinant Them1.\nReaction labeling recombinant full-length Them1, Them1l-ΔSTART, START or Acot12 with Monolith RED-Tris-NTA (NanoTemper Technologies; San Francisco, CA) were performed according to the manufacturer's instructions in buffer containing PBS plus 0.5% Tween-20 for 60 min at 22° C. with a molar dye: protein ratio=1:1. […] Working concentrations of compounds were prepared by diluting in microscale thermophoresis buffer. […] Fluorescence was measured using a Monolith NT.115 instrument (NanoTemper Technologies; San Francisco, CA) at 22° C. with instrument parameters adjusted to 40% LED power and medium microscale thermophoresis power. […]"}},
  "data": [
    {"smiles": "Cc1[nH]c2ccccc2c1C(c1cccs1)N1CCN(Cc2ccccc2)CC1", "note": "(centres unmarked) [3-((4-benzylpiperazin-1-yl)(thiophen-2-yl)methyl)-2-methyl-1H-indole]", "values": [
      {"measurement": "CC50 at 48 h", "setting": "[1]", "result": "> 125", "unit": "µM"},
      {"measurement": "OCR in A-Them1Tg brown adipocytes, reversal of Them1 suppression", "setting": "[2]", "result": "reversed the suppressive effects of Them1 on values of OCR"},
      {"measurement": "Kd", "setting": "[3]", "result": "> 125", "unit": "µM"}
    ]},
    {"smiles": "Cc1[nH]c2ccccc2c1C(c1cccs1)N1CCCC1", "note": "(centres unmarked) [Compound U2]", "values": [
      {"measurement": "CC50 at 48 h", "setting": "[1]", "result": "> 125", "unit": "µM"}
    ]},
    {"smiles": "Cc1[nH]c2ccccc2c1C(c1cccs1)N1CCN(C)CC1", "note": "(centres unmarked) [Compound U3]", "values": [
      {"measurement": "CC50 at 48 h", "setting": "[1]", "result": "> 125", "unit": "µM"}
    ]},
    {"smiles": "Cc1[nH]c2ccccc2c1C(c1cccs1)N1CCOCC1", "note": "(centres unmarked) [Compound U5]", "values": [
      {"measurement": "CC50 at 48 h", "setting": "[1]", "result": "> 125", "unit": "µM"}
    ]},
    {"smiles": "Cc1[nH]c2ccccc2c1C(c1cccs1)N1CCCCC1", "note": "(centres unmarked) [Compound U6]", "values": [
      {"measurement": "CC50 at 48 h", "setting": "[1]", "result": "> 125", "unit": "µM"},
      {"measurement": "OCR in A-Them1Tg brown adipocytes, reversal of Them1 suppression", "setting": "[2]", "result": "reversed the suppressive effects of Them1 on values of OCR"},
      {"measurement": "Kd", "setting": "[3]", "result": "> 125", "unit": "µM"},
      {"measurement": "Kd", "setting": "[4]", "result": "> 125", "unit": "µM"}
    ]},
    {"smiles": "CCOC(=O)C1CCN(C(c2cccs2)c2c(C)[nH]c3ccccc23)CC1", "note": "(centres unmarked) [Compound U7, ethyl 1-((2-methyl-1H-indol-3-yl)(thiophen-2-yl)methyl)piperidine-4-carboxylate]", "values": [
      {"measurement": "CC50 at 48 h", "setting": "[1]", "result": "> 125", "unit": "µM"},
      {"measurement": "Kd", "setting": "[3]", "result": "> 125", "unit": "µM"},
      {"measurement": "Kd / binding affinity to full-length Them1 compared to the parent U1 compound", "setting": "[5]", "result": "comparable"},
      {"measurement": "binding to Them1-ΔSTART", "setting": "[4]", "result": "did not bind"},
      {"measurement": "Kd", "setting": "[4]", "result": "> 125", "unit": "µM"},
      {"measurement": "binding affinity to the START domain compared to the parent U1 compound", "setting": "[6]", "result": "comparable"}
    ]},
    {"smiles": "Cc1[nH]c2ccccc2c1C(c1cccs1)N1CCNCC1", "note": "(centres unmarked) [Compound U9, 2-methyl-3-(piperazin-1-yl(thiophen-2-yl)methyl)-1H-indole]", "values": [
      {"measurement": "CC50 at 48 h", "setting": "[1]", "result": "> 125", "unit": "µM"},
      {"measurement": "OCR in A-Them1Tg brown adipocytes, reversal of Them1 suppression", "setting": "[2]", "result": "reversed the suppressive effects of Them1 on values of OCR"},
      {"measurement": "Kd", "setting": "[3]", "result": "> 125", "unit": "µM"},
      {"measurement": "Kd", "setting": "[4]", "result": "> 125", "unit": "µM"}
    ]},
    {"smiles": "CC(=O)N1CCN(C(c2cccs2)c2c(C)[nH]c3ccccc23)CC1", "note": "(centres unmarked) [Compound U10, 1-(4-((2-methyl-1H-indol-3-yl)(thiophen-2-yl)methyl)piperazin-1-yl)ethan-1-one]", "values": [
      {"measurement": "CC50 at 48 h", "setting": "[1]", "result": "> 125", "unit": "µM"},
      {"measurement": "Kd", "setting": "[3]", "result": "> 125", "unit": "µM"},
      {"measurement": "Kd", "setting": "[4]", "result": "> 125", "unit": "µM"}
    ]},
    {"smiles": "Cc1[nH]c2ccccc2c1C(c1cccs1)N1CCN(C(=O)c2ccccc2)CC1", "note": "(centres unmarked) [Compound U13, (4-((2-methyl-1H-indol-3-yl)(thiophen-2-yl)methyl)piperazin-1-yl)(phenyl)methanone]", "values": [
      {"measurement": "CC50 at 48 h", "setting": "[1]", "result": "> 125", "unit": "µM"},
      {"measurement": "Kd", "setting": "[3]", "result": "> 125", "unit": "µM"},
      {"measurement": "Kd / binding affinity to full-length Them1 compared to the parent U1 compound", "setting": "[5]", "result": "comparable"},
      {"measurement": "binding to Them1-ΔSTART", "setting": "[4]", "result": "did not bind"},
      {"measurement": "Kd", "setting": "[4]", "result": "> 125", "unit": "µM"},
      {"measurement": "binding affinity to the START domain compared to the parent U1 compound", "setting": "[6]", "result": "comparable"}
    ]},
    {"smiles": "CCOC(=O)N1CCN(C(c2ccc(C)s2)c2c(C)[nH]c3ccccc23)CC1", "note": "(centres unmarked) [Compound U16, ethyl 4-((2-methyl-1H-indol-3-yl)(5-methylthiophen-2-yl)methyl)piperazine-1-carboxylate]", "values": [
      {"measurement": "CC50 at 48 h", "setting": "[1]", "result": "> 125", "unit": "µM"},
      {"measurement": "Kd", "setting": "[3]", "result": "> 125", "unit": "µM"},
      {"measurement": "Kd / binding affinity to full-length Them1 compared to the parent U1 compound", "setting": "[5]", "result": "comparable"},
      {"measurement": "binding to Them1-ΔSTART", "setting": "[4]", "result": "did not bind"},
      {"measurement": "Kd", "setting": "[4]", "result": "> 125", "unit": "µM"},
      {"measurement": "binding affinity to the START domain compared to the parent U1 compound", "setting": "[6]", "result": "comparable"}
    ]},
    {"smiles": "Cc1[nH]c2ccccc2c1C(c1cccs1)N1CCN(C(=O)OCc2ccccc2)CC1", "note": "(centres unmarked) [benzyl 4-((2-methyl-1H-indol-3-yl)(thiophen-2-yl)methyl)piperazine-1-carboxylate]", "values": [
      {"measurement": "OCR in A-Them1Tg brown adipocytes, reversal of Them1 suppression", "setting": "[2]", "result": "remained suppressed"},
      {"measurement": "Kd", "setting": "[3]", "result": "> 125", "unit": "µM"}
    ]},
    {"smiles": "CCOC(=O)N1CCN(C(c2ccccc2)c2c(C)[nH]c3ccccc23)CC1", "note": "(centres unmarked) [ethyl 4-((2-methyl-1H-indol-3-yl)(phenyl)methyl)piperazine-1-carboxylate]", "values": [
      {"measurement": "Kd", "setting": "[3]", "result": "> 125", "unit": "µM"}
    ]}
  ]
}
